This is an account of results in ChEMBL document CHEMBL1158103, “Theopapuamide, a cyclic depsipeptide from a Papua New Guinea lithistid sponge Theonella swinhoei” (J Nat Prod, 2006).

Structures are written as SMILES.

The nature of assay [1]: Cytotoxicity against human CEM-TART cells after 72 hrs by MTT assay. In kind it is cell-based.
Assay [2] in a line: Cytotoxicity against human HCT 116 cells after 48 hrs by MTT assay. The settings on record: HCT-116, 48 h. Format: functional, cell-based. In general terms: Formazan colour is commonly taken as a measure of viable cells.

For the molecule `CCC(C)CC(C)C(O)C(C)C(=O)N[C@H](CN)C(=O)NC(C(O)C(O)C(=O)N[C@H](C(=O)N[C@H]1C(=O)N[C@H]([C@@H](C)O)C(=O)N[C@H](CCCN)C(=O)N[C@@H](CC(C)C)C(=O)N(C)[C@@H](CCC(N)=O)C(=O)N[C@@H]([C@@H](OC)C(N)=O)C(=O)N[C@H](CC(N)=O)C(=O)N(C)[C@@H](CC(C)C)C(=O)O[C@@H]1C)[C@H](C)C(C)C(N)=O)C(C)(C)O` (some centres not stated) [THEOPAPUAMIDE], the 50% effective concentration (EC50) (as a rule, the concentration that produces a half-maximal response) worked out at 500 nM in assay [1] and 900 nM in assay [2].
